The results in this text go back to patent publication US9630955B2, “Chemical compound useful as intermediate for preparing a catechol-O-methyltransferase inhibitor” (BIAL—Portela & Cª., S.A, priority 2011, dated 2017).

Where two headings read alike, the source gives them in different places.

In assay [1] the target is T1, human recombinant S-COMT (Homo sapiens, UniProt P21964).
T1 sequence (P21964 1-221 isoform P21964-2): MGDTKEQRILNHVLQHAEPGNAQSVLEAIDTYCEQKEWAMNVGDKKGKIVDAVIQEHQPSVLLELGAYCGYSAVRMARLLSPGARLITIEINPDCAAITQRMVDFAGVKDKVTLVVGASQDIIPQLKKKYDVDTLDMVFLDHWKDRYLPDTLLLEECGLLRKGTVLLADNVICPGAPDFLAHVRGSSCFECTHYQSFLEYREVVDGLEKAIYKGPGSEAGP

For assay [2], the target named is T2, liver COMT (Rattus norvegicus, UniProt P22734).
T2 construct: from tissue; host or cells: rat liver
T2 sequence (P22734 1-264): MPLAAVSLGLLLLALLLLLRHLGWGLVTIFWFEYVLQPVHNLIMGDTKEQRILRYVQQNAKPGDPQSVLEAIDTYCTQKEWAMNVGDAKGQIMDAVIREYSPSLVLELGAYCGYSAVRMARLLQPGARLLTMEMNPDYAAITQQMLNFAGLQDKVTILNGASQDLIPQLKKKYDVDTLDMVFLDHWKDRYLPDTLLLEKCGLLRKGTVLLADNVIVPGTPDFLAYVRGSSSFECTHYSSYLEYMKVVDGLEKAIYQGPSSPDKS
Kind of assay: inhibition of liver COMT post oral administration to rats. In kind it is in vivo. To be noted: for ED50: rat, po.

Assay [3] deals with T3, COMT in the brain (Rattus norvegicus, UniProt P22734).
T3 construct: from tissue; host or cells: rat brain
T3 sequence (P22734 1-264): T2 sequence (P22734 1-264)
Kind of assay: inhibition of COMT in the brain following oral administration to the rat. Type of assay: in vivo. The settings on record: over a period of 8 hours post administration.

As to `Cc1ccc(C(=O)c2cc(O)c(O)c([N+](=O)[O-])c2)cc1` [tolcapone], in assay [1], the “inhibition of human recombinant S-COMT (in words)” value was “inhibit”. In addition, the “enzyme activity recovery (rat liver COMT)” value in assay [2] (oral administration, after 9 hours) was “about 84%”. The ED50 in assay [2] (read-out: ED50 inhibiting liver COMT, rats, oral administration, at 3 hours post administration) was determined as 1.28 mg/kg; in assay [2] (read-out: ED50 inhibiting liver COMT, rats, oral administration, at 6 hours post administration) it was 2.08 mg/kg. Moreover, the “enzyme activity inhibited (COMT in the brain)” value in assay [3] is “about 50%”.
